Measured values taken from US5441987A, “Antifungal agent” (Merck & Co., Inc., priority 1994, dated 1995).
≈ marks a conversion by molar mass, not a printed value.

How the values were obtained:
[1] = test system: Aspergillus fumigatus (MF 4839); experiment: broth microdilution MIC assay; conditions: read-out: Minimum Inhibitory Concentration (MIC)
Description: (§1) In the microbroth dilution assay, microorganisms were selected by streaking a yeast culture on Sabouraud dextrose agar (SDA) incubating for 24-48 hours at 35°-37° C., thereafter selected 3 to 5 characteristic colonies and transferring to a fresh plate and incubating under similar conditions. From the regrowth, 3 to 5 colonies were selected and suspended in 10 milliliters of YM broth (Difco) and incubated for 4 hours at 35°-37° C. shaking at 225 rpm. The 4 hour broth cultures were adjusted optically to 86% transmission resulting in a concentration of 1-5 X 10^6 cfu/ml which was further diluted 1:100 in YNBD (yeast nitrogen base with 1% dextrose) to obtain a concentration of 1-5 X 10^4 cfu/ml for use as inocula.
(§2) The compounds in column 1 were then serially diluted two-fold to yield concentrations from 128 μg/ml to 0.6 μg/ml.
(§3) The plates containing the diluted compounds were then inoculated with 75 μl/well of the appropriate microorganism and incubated for 48 hours at 35°-37° C. with MIC (minimum inhibitory concentration) determinations carried out after 24 hours of incubation. Growth and sterility controls for each organism and sterility checks for the compounds also were carried out.

A. fumigatus (5668) = experiment: broth microdilution MIC assay; conditions: Aspergillus fumigatus, read-out: Minimum Inhibitory Concentration (MIC)
Description: as §1, §2, §3

A. fumigatus (5669) = experiment: broth microdilution MIC assay; conditions: Aspergillus fumigatus, read-out: Minimum Inhibitory Concentration (MIC)
Description: as §1, §2, §3

[2] = test system: Candids albicans (MY 1028); experiment: broth microdilution MIC/MFC assay; conditions: Candida albicans; for MFC: read-out: Minimum Fungicidal Concentration (MFC)
Description: as §1, §2, §3
(§4) After recording MICs at 24 hours, the microtiter plates were shaken gently to resuspend the cells. A 1.5 μl sample was transferred from each well of the 96-well microtiter plate to a single reservoir inoculum plate containing SDA. The inoculated SDA and corresponding microtiter plates were incubated for 24 hours at 35°-37° C. For Cryptococus neoformans, SDA plates were inoculated at 48 hours after recording MICs and incubated 48 hours before reading the MFC. MFC is the lowest concentration of compound at which either no growth or growth of ≤4 colonies occur.

C. albicans (MY 1750) = experiment: broth microdilution MIC/MFC assay; conditions: Candida albicans; for MFC: read-out: Minimum Fungicidal Concentration (MFC)
Description: as §1, §2, §3, §4

[3] = test system: C. guillermondii (MY 1019); experiment: broth microdilution MIC/MFC assay; conditions: Meyerozyma guilliermondii; for MIC: 24 h, read-out: Minimum Inhibitory Concentration (MIC); for MFC: read-out: Minimum Fungicidal Concentration (MFC)
Description: as §1, §2, §3, §4

[4] = test system: C. parapsilosis (MY 1010); experiment: broth microdilution MIC/MFC assay; conditions: Lodderomyces parapsilosis; for MIC: 24 h, read-out: Minimum Inhibitory Concentration (MIC); for MFC: read-out: Minimum Fungicidal Concentration (MFC)
Description: as §1, §2, §3, §4

[5] = test system: C. pseudotropicalis (MY 2099); experiment: broth microdilution MIC/MFC assay; conditions: Kluyveromyces marxianus; for MIC: 24 h, read-out: Minimum Inhibitory Concentration (MIC); for MFC: read-out: Minimum Fungicidal Concentration (MFC)
Description: as §1, §2, §3, §4

C. tropicalis (MY 1012) = experiment: broth microdilution MIC/MFC assay; conditions: Candida tropicalis; for MIC: 24 h, read-out: Minimum Inhibitory Concentration (MIC); for MFC: read-out: Minimum Fungicidal Concentration (MFC)
Description: as §1, §2, §3, §4

[6] = test system: Cryptococcus neoformans (MY 1051); experiment: broth microdilution MIC/MFC assay; conditions: for MFC: 48 h, read-out: Minimum Fungicidal Concentration (MFC); for MIC: read-out: Minimum Inhibitory Concentration (MIC)
Description: as §1, §2, §3, §4

C. neoformans (MY 1146) = experiment: broth microdilution MIC/MFC assay; conditions: Cryptococcus neoformans; for MFC: 48 h, read-out: Minimum Fungicidal Concentration (MFC); for MIC: read-out: Minimum Inhibitory Concentration (MIC)
Description: as §1, §2, §3, §4

C. neoformans (MY 2061) = experiment: broth microdilution MIC/MFC assay; conditions: Cryptococcus neoformans; for MFC: 48 h, read-out: Minimum Fungicidal Concentration (MFC); for MIC: read-out: Minimum Inhibitory Concentration (MIC)
Description: as §1, §2, §3, §4

C. neoformans (MY 2062) = experiment: broth microdilution MIC/MFC assay; conditions: Cryptococcus neoformans; for MFC: 48 h, read-out: Minimum Fungicidal Concentration (MFC); for MIC: read-out: Minimum Inhibitory Concentration (MIC)
Description: as §1, §2, §3, §4

[7] = test system: Saccharomyces cerevisiae (MY 1976); experiment: broth microdilution MIC/MFC assay; conditions: for MIC: 24 h, read-out: Minimum Inhibitory Concentration (MIC)
Description: as §1, §2, §3, §4

Phytophthora infestans = format: in vivo; conditions: 50 ppm, tomato, evaluated after four days
Plasmopara viticola = experiment: in vivo protectant assay, downy mildew on grape; conditions: 50 ppm, evaluated after 12 days
Alternaria solani = experiment: in vivo protectant assay, early blight on tomato; conditions: 50 ppm, evaluated after four days
Botrytis cinerea = experiment: in vivo protectant assay, grey mold on pepper; conditions: 50 ppm, evaluated after four days
Puccinia recondita = experiment: in vivo protectant assay, wheat leaf rust on wheat; conditions: 50 ppm, evaluated after 10-14 days
filamentous fungi = experiment: filter paper disc inhibition zone assay, filamentous fungi; format: cell-based; conditions: 25 μl/disc, 28° C. or 37° C., 24 hours
Description: Compound I is also useful for inhibiting the growth of filamentous fungi. Such use may be illustrated in the following tests with Aspergillus fumigatus, Aspergillus niger, Aspergillus flavus, Fusarium oxysporum, Rhizomicor miehei, Ustilago zeae and the like. Inocula for filamentous fungi are prepared by scraping the surface of stock plates maintained on potato dextrose agar with a moistened sterile dacron swab. The spores and mycelia are then suspended in 10 milliliters of sterile potato dextrose broth and adjusted to 70 percent transmission at 660 nm. The samples to be tested for production of antifungal agent are applied to 6.2 mm. filter paper discs (25 microliter/disc) and air dried at 24° C. When the sample to be tested is crude broth, it may be centrifuged prior to application. The discs bearing the material to be tested are then applied employing sterile conditions to the seeded assay plates and the samples […] 25 percent sterile aqueous dimethylsulfoxide (25 μl/disc). The assay plates are then incubated at either 28° C. or 37° C. for 24 hours. Following incubation, the inhibition zones are measured. Growths are also noted as to appearance.

[8] = 24 h, read-out: Minimum Inhibitory Concentration (MIC)

Row | Compound | MIC [1] [µg/mL] | MIC (A. fumigatus (5668)) [µg/mL] | MIC (A. fumigatus (5669)) [µg/mL] | MFC [2] [µg/mL] | MFC (C. albicans (MY 1750)) [µg/mL] | MIC [3] [µg/mL] | MFC [3] [µg/mL] | MIC [4] [µg/mL] | MFC [4] [µg/mL] | MIC [5] [µg/mL] | MFC [5] [µg/mL] | MIC (C. tropicalis (MY 1012)) [µg/mL] | MFC (C. tropicalis (MY 1012)) [µg/mL] | MFC [6] [µg/mL] | MIC [6] [µg/mL] | MFC (C. neoformans (MY 1146)) [µg/mL] | MIC (C. neoformans (MY 1146)) [µg/mL] | MFC (C. neoformans (MY 2061)) [µg/mL] | MIC (C. neoformans (MY 2061)) [µg/mL] | MFC (C. neoformans (MY 2062)) [µg/mL] | further results
1 | C[C@@H]1[C@H](O)[C@@H](C)/C=C/C=C/C=C/C=C/C=C/C=C/C=C/[C@H](O[C@@H]2O[C@H](C)[C@@H](O)[C@H](N)[C@@H]2O)C[C@@H]2O[C@](O)(C[C@@H](O)C[C@@H](O)[C@H](O)CC[C@@H](O)C[C@@H](O)CC(=O)O[C@H]1C)C[C@H](O)[C@H]2C(=O)O [Amphotericin B, reference compound] | 4 (≈ 4.33 µM) | 4 (≈ 4.33 µM) | 4 (≈ 4.33 µM) | 2 (≈ 2.16 µM) | 2 (≈ 2.16 µM) | 2 (≈ 2.16 µM) | 4 (≈ 4.33 µM) | 2 (≈ 2.16 µM) | 2 (≈ 2.16 µM) | 4 (≈ 4.33 µM) | 4 (≈ 4.33 µM) | 64 (≈ 69.3 µM) | 32 (≈ 34.6 µM) | 4 (≈ 4.33 µM) | 2 (≈ 2.16 µM) | 2 (≈ 2.16 µM) | 2 (≈ 2.16 µM) | 2 (≈ 2.16 µM) | 2 (≈ 2.16 µM) | 2 (≈ 2.16 µM) | MIC (C. neoformans (MY 2062)): 2 µg/mL (≈ 2.16 µM); MIC [7]: 1 µg/mL (≈ 1.08 µM)
2 | CCCCCCC(C)C1=C(O)C(=O)C2C(O)C(C)CC(O)C2C1(C)C(=O)CCO (centres unmarked) [Compound I] | 32 (≈ 77.9 µM) | 32 (≈ 77.9 µM) | 32 (≈ 77.9 µM) | 32 (≈ 77.9 µM) | 32 (≈ 77.9 µM) | 16 (≈ 39 µM) | 16 (≈ 39 µM) | 64 (≈ 156 µM) | 64 (≈ 156 µM) | 16 (≈ 39 µM) | 32 (≈ 77.9 µM) | 32 (≈ 77.9 µM) | 32 (≈ 77.9 µM) | 16 (≈ 39 µM) | 8 (≈ 19.5 µM) | 32 (≈ 77.9 µM) | 32 (≈ 77.9 µM) | 16 (≈ 39 µM) | 16 (≈ 39 µM) | 32 (≈ 77.9 µM) | control of Phytophthora infestans (Phytophthora infestans): up to 90%; control of Plasmopara viticola (Plasmopara viticola): ≤ 85%; control of Alternaria solania (Alternaria solani): Moderate control; control of Botrytis cinerea (Botrytis cinerea): Moderate control; control of Puccinia recondita (Puccinia recondita): Moderate control; growth inhibition of fungal organisms (inhibition zones) (filamentous fungi): effectively inhibit growth; MIC [2, 8]: 32 µg/mL (≈ 77.9 µM); MIC (C. albicans (MY 1750); [8]): 64 µg/mL (≈ 156 µM); MIC (C. neoformans (MY 2062)): 16 µg/mL (≈ 39 µM); MIC [7]: 16 µg/mL (≈ 39 µM); MFC ([7]; read-out: Minimum Fungicidal Concentration (MFC)): 16 µg/mL (≈ 39 µM)
